Consider three molecules from US4235962A, “Combination kit for transaminase assay of a body fluid” (The Dow Chemical Company, priority 1978, dated 1980).

One assay addresses AST (Sus scrofa, UniProt P00503). Conditions: cited from earlier work.
Assay [1] has as its target T1, ALT (alanine 2-oxoglutarate aminotransferase) (Homo sapiens, UniProt P24298).
T1 sequence (P24298 2-496 limits assumed): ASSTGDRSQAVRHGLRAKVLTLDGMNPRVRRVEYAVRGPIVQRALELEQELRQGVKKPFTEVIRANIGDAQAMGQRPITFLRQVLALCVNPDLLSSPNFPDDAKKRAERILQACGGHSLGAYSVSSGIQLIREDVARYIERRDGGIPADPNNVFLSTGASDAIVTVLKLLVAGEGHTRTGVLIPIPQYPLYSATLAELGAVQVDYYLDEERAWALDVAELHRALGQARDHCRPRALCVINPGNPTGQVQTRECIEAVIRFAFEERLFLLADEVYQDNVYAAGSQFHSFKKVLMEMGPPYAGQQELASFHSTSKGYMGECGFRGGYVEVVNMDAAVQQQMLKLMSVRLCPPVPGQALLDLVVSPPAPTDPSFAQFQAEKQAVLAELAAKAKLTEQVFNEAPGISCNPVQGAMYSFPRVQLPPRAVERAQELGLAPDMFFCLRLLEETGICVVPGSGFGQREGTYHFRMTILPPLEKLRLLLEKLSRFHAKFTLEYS
Description: For precise measurement of a bimolecular reaction of the type under discussion, the rate of a reaction, at a given "B" concentration should be independent of A's concentration (i.e. at or near apparent Vmax with respect to A). However, for situations where A's concentrations are very low (i.e. endogenous serum contributions of amino acids in a side reaction situation) it becomes important to be able to access the extent of measurement of the apparent maximum velocity of said "contaminant reaction." This being the case of a combination AST/ALT test where one is concerned with the measurement of AST in an ALT test or vice versa, a mathematical outline is in order. Both side reactions are quantitatively discussed below.
ALT, likewise having a "ping pong" mechanism of catalysis, can kinetically be described identically: [formula] […] (KB /B+1 is again <<KA /A.
Therefore the [formula] […] Therefore the % V1 apparent as measured [formula]

AST, sequence (P00503 2-413 limits assumed): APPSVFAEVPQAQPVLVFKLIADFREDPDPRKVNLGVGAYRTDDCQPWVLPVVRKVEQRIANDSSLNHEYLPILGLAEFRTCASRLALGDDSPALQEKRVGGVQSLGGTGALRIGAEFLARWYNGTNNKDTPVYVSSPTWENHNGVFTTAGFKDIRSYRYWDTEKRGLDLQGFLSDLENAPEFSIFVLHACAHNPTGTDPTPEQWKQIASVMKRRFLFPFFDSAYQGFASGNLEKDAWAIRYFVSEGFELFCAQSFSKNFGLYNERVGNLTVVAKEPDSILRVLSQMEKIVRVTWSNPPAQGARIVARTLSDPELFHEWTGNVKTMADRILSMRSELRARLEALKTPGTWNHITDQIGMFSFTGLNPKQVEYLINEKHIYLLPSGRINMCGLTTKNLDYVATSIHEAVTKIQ

For the molecule `O=C(O)CCC(=O)C(=O)O` [2-oxoglutarate, 2-Oxoglutarate], on AST (read-out: KB, B = 2-oxoglutarate), the Km is 100 µM.
In the case of `C[C@H](N)C(=O)O` [alanine, L-alanine], the “Theoretical turnover of ALT” value in assay [1] came out at 1.32 % Vmax.
Turning to `N[C@@H](CC(=O)O)C(=O)O` [aspartate, L-aspartate], the KA on AST (A = aspartate) is recorded as 0.90 mM.
